According to US20160271139A1, “METHOD FOR NON-TOXIC TREATMENT FOR DRUG WITHDRAWAL” (DEMERX, INC., priority 2013, published 2016):
“Also recorded” adds a separate entry of the source.

What was measured:
[1] = tested on: animal models of addiction; settings: cited from earlier work
[2] = tested on: various animal species; experiment: Pre-clinical toxicity studies in various animal species (background); assay type: in vivo
[3] = tested on: healthy, drug-free male volunteers; experiment: Cold pressor test in healthy volunteers; assay type: in vivo, human; settings: single oral 3-60 mg, vs placebo p>0.9 and p=0.17
Experimental: Analgesic effect was assessed based on duration of hand immersion in ice water and on visual analog scale (VAS) pain scores upon hand removal from the water bath.
(§1) Safety and tolerability of noribogaine were tested in the group of volunteers from Example 1. […] Safety evaluations included clinical monitoring, recording of adverse events (AEs), safety laboratory tests, vital signs, ECO telemetry from −2 h to 6 h after dosing, and 12-lead electrocardiograms (ECGs) up to 216 hours post-dosing.

[4] = tested on: cynomolgus monkey; experiment: Single dose toxicity in cynomolgus monkeys; assay type: in vivo; settings: oral gavage
Experimental: The objective of the study was to determine the toxicity and toxicokinetic profile of noribogaine following oral (gavage) administration to the cynomolgus monkey. The test article was administered as follows in Table 1:
Parameters monitored on the study included: mortality, clinical signs and body weights. Blood samples were collected for TK evaluation. […] The single dose maximum tolerated dose (MTD) was determined to be greater than 160 mg/kg based on the parameters monitored during the study.

[5] = tested on: dogs; experiment: Single dose acute oral toxicity/TK study in dogs; assay type: in vivo, dog
[6] = tested on: healthy, drug-free male volunteers; experiment: Pupillary miosis by pupillometry in healthy volunteers; assay type: in vivo, human; settings: single oral 3-60 mg, vs placebo p>0.9
Experimental: Pulse oximetry and capnography data were collected continuously using a GE Carescape B650 monitoring system from 2 hours prior to dosing and until six hours after dosing, and thereafter at 12, 24, 48 and 72 hours post-dosing. […] Pupillary miosis was assessed by pupillometry.
Dose-proportionality of AUC and Cmax was assessed using linear regression.

[7] = tested on: healthy, drug-free male volunteers; experiment: Safety and tolerability in healthy volunteers; assay type: in vivo, human
Experimental: as §1

[8] = tested on: opioid-dependent participants; experiment: Efficacy in opioid-dependent participants: time to resumption of opioid substitution treatment; assay type: in vivo, human
Experimental: (§2) The efficacy of noribogaine in humans was evaluated in opioid-dependent participants in a randomized, placebo-controlled, double-blind trial. In the first cohort, six patients were orally administered a single dose of 60 mg noribogaine, and three patients received placebo. In the second cohort, five patients were orally administered a single dose of 120 mg noribogaine, and three patients received placebo.

[9] = Human pharmacokinetic study, single oral dose, serum levels (Example 6); assay type: in vivo; settings: human serum, fasting
Experimental: In double blind studies, fasting healthy volunteers (6 per cohort) were treated once orally with a tablet of noribogaine HCl. In escalating cohorts, the volunteers received 3 mg, 10 mg, 30 mg or 60 mg noribogaine.

[10] = Plasma toxicokinetics in dogs, days 1 and 14; assay type: in vivo, dog; settings: for T1/2 / Tmax: mean plasma
Experimental: Noribogaine HCl was administered to groups of 4 male and 4 female dogs by single oral gavage daily for 14 days at doses of 0, 0.5, 1.0 and 5.0 mg/kg/day. An additional group of 4 male and 4 female dogs received either the vehicle control or 5.0 mg/kg/day for 14 days and were held for an additional 28 days after cessation of dosing to assess recovery from any potential drug-induced changes. The study was conducted under GLP guidelines and included comprehensive examinations of clinical signs, body weight, clinical pathology parameters, ophthalmologic examinations. ECG recordings and analyses of plasma for bioanalytical measurement of drug levels at appropriate intervals during the study. At the termination of the dosing phase and at the termination of the recovery phase, all dogs were subjected to a complete post-mortem examination including gross examination of major organs and histologic examination of an extensive list of tissues. Additional sections of brain were obtained from cerebrum, cerebellus, brain stem and spinal cord and examined histologically to evaluate potential effects on brain histopathology. In addition, these sections were examined with immunohistochemical stains for GFAP for evidence of gliosis and Calbindin for a more comprehensive examination of cerebellar Purkinje cells.

[11] = tested on: opioid-dependent participants; experiment: Safety (QT interval, adverse effects) in opioid-dependent participants; assay type: in vivo, human
Experimental: as §2

[12] = Urine noribogaine and noribogaine glucuronide elimination in healthy volunteers; assay type: in vivo; settings: human urine
[13] = single oral dose 30 mg free base
[14] = female dogs, Gr 2 - 0.5 mg/kg, D1
[15] = female dogs, Gr 2 - 0.5 mg/kg, D14
[16] = female dogs, Gr 3 - 1.0 mg/kg, D1
[17] = female dogs, Gr 3 - 1.0 mg/kg, D14
[18] = female dogs, Gr 4 - 5.0 mg/kg, D1
[19] = female dogs, Gr 4 - 5.0 mg/kg, D14
[20] = opioid-dependent participants, single oral 60 mg or 120 mg

## CC[C@H]1C[C@H]2C[C@H]3c4[nH]c5ccc(O)cc5c4CCN(C2)[C@@H]13 [noribogaine]
[1]; alcohol, cocaine and opiate dependence
  Efficacy in animal models of addiction: effective in animal models of addiction to alcohol, cocaine and opiate dependence
[1]; animal model
  Psychotomimetic effects: had no activity
[1]; various animal addiction models
  Drug-seeking behavior: significantly reduced drug-seeking behavior
[2]
  Toxicity at high doses: can cause convulsions and other CNS-related clinical signs, respiratory arrest and death
[3]
  Analgesic effect (duration of hand immersion, VAS pain scores): no analgesic effect
[4]
  Single dose maximum tolerated dose (MTD): greater than 160 mg/kg
[4]; doses up to and including 160 mg/kg
  Mortality or treatment related clinical signs: No mortality or treatment related clinical signs
[5]
  NOAEL: 5 mg/kg
[5]; 5 mg/kg
  Findings at the NOAEL dose: only transient reduction in food consumption in one dog
[5]; 10 mg/kg, beginning 20 minutes after dosing, persisting until 3 h 40 m post-dose
  Clinical signs: Convulsions and other CNS-related clinical signs
[5]; 5 (n=2) or 10 (n=2) mg/kg
  Mortality: no mortality occurred
[6]
  Pupillary constriction (dark-adapted pupil diameter): no evidence of pupillary constriction
[7]; healthy volunteers, 3 mg dose group
  Number of adverse events reported: five adverse events were reported by two subjects
[7]; healthy volunteers, 10 mg dose group, single subject
  Number of adverse events reported: one adverse event
[7]; healthy volunteers, 30 mg dose group, single subject
  Number of adverse events reported: one adverse event
[7]; healthy volunteers, 3-60 mg
  Oximetry, capnography, respiratory rate: no changes in oximetry or capnography, or changes in respiratory rate
  Vital signs or safety laboratory tests: no changes in vital signs or safety laboratory tests of note
[7]; healthy volunteers, 3-60 mg, at any time
  QTcF values >500 msec: no QTcF values>500 msec at any time
[7]; healthy volunteers, Dose 3 mg
  Adverse events, Mild: Dizziness; also recorded: Epistaxis; also recorded: Headache; also recorded: Back pain
  Adverse events, Moderate: Headache
[7]; healthy volunteers, Dose 10 mg
  Adverse events, Mild: Headache
[7]; healthy volunteers, Dose 30 mg
  Adverse events, Mild: Headache
[7]; one subject dosed with 10 mg, at 24 hours post-dosing
  Single increase in QTcF: > 60 ms
[8]; first cohort, blinded: 60 mg noribogaine or placebo
  Time to resumption of opioids longer than that reported for untreated patients in a similar study: ~2 h
[8]; first cohort, blinded: single oral 60 mg noribogaine (6 patients) or placebo (3 patients)
  Average time to resumption of opioids: approximately 8.7 hours
[8]; second cohort, 120 mg, five presumed noribogaine-treated patients (those with QT prolongation)
  Average time to resumption of OST: approximately 26.8 hours
[8]; second cohort, blinded: single oral 120 mg noribogaine (5 patients) or placebo (3 patients)
  Average time to resumption of opioids: approximately 23 hours
[9]; single oral dose 3 mg free base
  time after administration at which mean Cmax was observed: 1.9 h
[9]; single oral dose 10 mg free base
  time after administration at which mean Cmax was observed: 2.9 h
[9]; [13]
  mean Cmax: 55.0 ng/mL
  time after administration at which mean Cmax was observed: 1.75 h
[9]; single oral dose 60 mg free base
  time after administration at which mean Cmax was observed: 1.75 h
[10]; [14]
  T1/2: 60 min
  Tmax: 30 min
[10]; [15]
  T1/2: 66 min
  Tmax: 60 min
[10]; [16]
  T1/2: 84 min
  Tmax: 48 min
[10]; [17]
  T1/2: 96 min
  Tmax: 30 min
[10]; [18]
  T1/2: 258 min
  Tmax: 36 min
[10]; [19]
  T1/2: 342 min
  Tmax: 36 min
[10]; male and female dogs of Group 4 (5.0 mg/kg), Days 1 and 14
  Plasma level at 24 h post-dosing: significant levels of noribogaine were still detected
[10]; male dogs, Gr 2 - 0.5 mg/kg, D1
  Tmax: 42 min
[10]; male dogs, Gr 2 - 0.5 mg/kg, D14
  Tmax: 42 min
[10]; male dogs, Gr 3 - 1.0 mg/kg, D1
  Tmax: 54 min
[10]; male dogs, Gr 3 - 1.0 mg/kg, D14
  Tmax: 48 min
[10]; male dogs, Gr 4 - 5.0 mg/kg, D1
  Tmax: 36 min
[10]; male dogs, Gr 4 - 5.0 mg/kg, D14
  Tmax: 54 min
[11]; first cohort, 60 mg noribogaine or placebo
  Mean prolongation of the QT interval: less than 10 ms
[11]; [20]
  Adverse effects: No adverse effects of noribogaine were observed in any of the participants
  Hallucinatory effects: no hallucinatory effects
[11]; second cohort, 120 mg noribogaine or placebo
  Mean prolongation of the QT interval: less than 40 ms
[12]; 30 mg dose group
  Total urine noribogaine elimination (sum of noribogaine and noribogaine glucuronide): 1.16 mg
  Total urine noribogaine elimination as share of the dose administered: 3.9%
[12]; 60 mg dose group
  Total urine noribogaine elimination (sum of noribogaine and noribogaine glucuronide): 0.82 mg
  Total urine noribogaine elimination as share of the dose administered: 1.4%
